Data as given in patent publication US10077261B2, “Imidazolin-5-one derivative useful as FASN inhibitors for the treatment of cancer” (Janssen Pharmaceutica NV, priority 2012, dated 2018).

Experiments:
[1] = system: LNCaP-Vancouver prostate cells; test: In vitro LNCaP Vancouver prostate cell proliferation assay in lipid reduced medium; format: cell-based; settings: read-out: pIC50 LNCaP_Vancouver prostate cell (converted)
[2] = molecular target: Fatty Acid Synthase Keto-reductase Domain (FASN KR) (Homo sapiens, UniProt P49327); test: Fatty Acid Synthase keto-reductase domain (FASN KR) inhibition, NADPH oxidation at 340 nm
Sequence of Fatty Acid Synthase Keto-reductase Domain (FASN KR) (P49327 whole entry, the tested form may be a part): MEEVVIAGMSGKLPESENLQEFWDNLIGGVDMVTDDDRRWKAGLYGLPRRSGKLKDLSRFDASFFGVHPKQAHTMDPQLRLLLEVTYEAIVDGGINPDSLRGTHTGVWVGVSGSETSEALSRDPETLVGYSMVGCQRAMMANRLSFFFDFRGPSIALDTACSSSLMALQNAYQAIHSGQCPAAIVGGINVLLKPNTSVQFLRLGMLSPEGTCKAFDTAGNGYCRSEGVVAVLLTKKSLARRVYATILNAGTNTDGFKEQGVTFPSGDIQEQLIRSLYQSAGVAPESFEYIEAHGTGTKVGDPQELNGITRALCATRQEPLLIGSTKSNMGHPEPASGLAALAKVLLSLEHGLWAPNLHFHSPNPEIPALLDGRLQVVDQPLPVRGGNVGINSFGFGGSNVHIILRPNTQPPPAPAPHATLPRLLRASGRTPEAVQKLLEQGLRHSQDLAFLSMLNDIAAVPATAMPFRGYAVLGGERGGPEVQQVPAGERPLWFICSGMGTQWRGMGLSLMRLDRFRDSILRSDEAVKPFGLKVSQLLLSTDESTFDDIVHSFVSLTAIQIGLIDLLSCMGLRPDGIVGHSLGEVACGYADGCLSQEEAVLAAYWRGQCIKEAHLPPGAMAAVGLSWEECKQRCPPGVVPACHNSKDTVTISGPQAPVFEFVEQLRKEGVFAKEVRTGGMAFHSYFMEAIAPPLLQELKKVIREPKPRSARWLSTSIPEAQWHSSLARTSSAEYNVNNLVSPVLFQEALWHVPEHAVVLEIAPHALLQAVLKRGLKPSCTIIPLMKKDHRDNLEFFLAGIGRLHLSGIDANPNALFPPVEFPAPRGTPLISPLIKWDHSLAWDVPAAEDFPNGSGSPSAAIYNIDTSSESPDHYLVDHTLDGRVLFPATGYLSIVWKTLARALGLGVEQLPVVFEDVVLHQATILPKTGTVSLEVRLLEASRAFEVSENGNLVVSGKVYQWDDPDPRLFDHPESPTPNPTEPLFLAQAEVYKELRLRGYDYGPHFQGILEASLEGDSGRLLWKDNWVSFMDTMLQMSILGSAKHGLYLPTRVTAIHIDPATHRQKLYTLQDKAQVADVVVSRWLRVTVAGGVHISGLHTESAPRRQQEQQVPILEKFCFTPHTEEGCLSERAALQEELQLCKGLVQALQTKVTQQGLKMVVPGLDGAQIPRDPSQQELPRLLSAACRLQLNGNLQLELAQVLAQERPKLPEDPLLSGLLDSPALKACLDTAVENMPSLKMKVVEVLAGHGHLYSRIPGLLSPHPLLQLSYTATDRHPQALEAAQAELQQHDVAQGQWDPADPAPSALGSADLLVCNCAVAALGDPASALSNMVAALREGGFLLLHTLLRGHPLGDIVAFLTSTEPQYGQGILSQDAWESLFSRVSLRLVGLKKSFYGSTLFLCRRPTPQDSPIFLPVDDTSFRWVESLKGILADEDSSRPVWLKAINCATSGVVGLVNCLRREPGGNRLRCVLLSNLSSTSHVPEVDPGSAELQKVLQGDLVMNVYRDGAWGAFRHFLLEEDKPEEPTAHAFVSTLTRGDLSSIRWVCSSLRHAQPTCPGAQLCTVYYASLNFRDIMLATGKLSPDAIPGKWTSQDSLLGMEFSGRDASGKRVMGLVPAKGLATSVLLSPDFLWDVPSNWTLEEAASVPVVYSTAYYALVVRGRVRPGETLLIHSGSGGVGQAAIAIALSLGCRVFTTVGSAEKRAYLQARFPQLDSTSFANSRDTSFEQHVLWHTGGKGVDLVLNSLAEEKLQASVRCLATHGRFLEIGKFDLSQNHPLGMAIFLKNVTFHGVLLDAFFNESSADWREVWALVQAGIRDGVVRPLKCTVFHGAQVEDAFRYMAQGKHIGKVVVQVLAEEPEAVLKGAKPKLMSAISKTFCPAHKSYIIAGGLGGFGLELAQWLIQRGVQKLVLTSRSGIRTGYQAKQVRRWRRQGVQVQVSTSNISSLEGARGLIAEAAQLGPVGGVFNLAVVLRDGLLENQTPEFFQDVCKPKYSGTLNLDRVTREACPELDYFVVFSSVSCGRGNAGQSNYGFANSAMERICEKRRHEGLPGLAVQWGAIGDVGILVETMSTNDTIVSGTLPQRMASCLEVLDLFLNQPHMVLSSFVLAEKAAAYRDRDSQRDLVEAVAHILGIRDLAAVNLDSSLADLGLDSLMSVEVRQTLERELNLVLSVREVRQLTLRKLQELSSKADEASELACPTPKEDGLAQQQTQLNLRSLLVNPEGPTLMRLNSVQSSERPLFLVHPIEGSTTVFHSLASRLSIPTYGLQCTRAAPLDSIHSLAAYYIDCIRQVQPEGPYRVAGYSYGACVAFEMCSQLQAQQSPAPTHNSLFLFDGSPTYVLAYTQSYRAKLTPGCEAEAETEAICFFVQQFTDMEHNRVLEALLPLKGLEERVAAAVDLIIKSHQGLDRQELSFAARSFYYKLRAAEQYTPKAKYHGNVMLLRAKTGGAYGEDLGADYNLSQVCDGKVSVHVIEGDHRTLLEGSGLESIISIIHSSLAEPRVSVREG
Procedure: After 20 minutes incubation at room temperature the plate was measured again (T2).
The decrease in absorbance was calculated as (Absorbance before incubation T1)−(Absorbance following incubation T2).
A plot of Controlmin versus test compound concentration was fitted to a 4-parameter logistic curve using a non-linear least squares regression method.

[3] = system: PC-3M-Luc-C6 prostate cells; test: In vitro PC-3M-Luc-C6 prostate cell proliferation assay in lipid reduced medium; format: cell-based; settings: 96 h, read-out: pIC50 PC-3M-Luc-C6 prostate cell (converted)
A2780 ovarian cells [4] = test: A2780 ovarian cell proliferation assay in lipid reduced medium, without palmitate (MTT); format: cell-based; settings: Homo sapiens, A2780, 96 h; read-out: pIC50 A2780 Ovarian Cell, Without Palmitate (converted)
A2780 ovarian cells [5] = test: A2780 ovarian cell proliferation assay in lipid reduced medium, with palmitate (MTT); format: cell-based; settings: Homo sapiens, A2780, 96 h; read-out: pIC50 A2780 Ovarian Cell, With Palmitate (converted)
In short: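 Seeded cells were switched next day to lipid-reduced serum, exposed to compound and 25 μM palmitate complexed with fatty-acid-free BSA, and incubated 96 h. Proliferation was then determined by MTT absorbance at 544 nm, with a best-fit curve of signal against concentration.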

[6] = molecular target: T1, hFASN enzyme (full length) (Homo sapiens, UniProt P49327); test: Fatty Acid Synthase (FASN) inhibition scintillation proximity assay; format: biochemical; settings: for inhibition at 10 µM: read-out: Human FASN % inhibition @ 10 μM, 10 μM test compound; for IC50: read-out: Human FASN pIC50 (converted)
T1 construct: 10 μL hFASN enzyme (full length, 300 ng, purified in house); made in house
T1 sequence (P49327 whole entry): as the sequence (P49327 whole entry, the tested form may be a part) above
In short: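 Compounds at 0.01–30 μM were mixed with 300 ng purified full-length enzyme in 100 mM KH2PO4 pH 7.5, 1 mM DTT. Substrates ³H-acetyl-CoA and malonyl-CoA were then converted, and bead addition stopped the reaction. Signal was normalised to low and high plate controls and fitted by 4-parameter nonlinear regression.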

Row | Structure (SMILES) | IC50 [1] | IC50 [2] | IC50 [3] | IC50 (A2780 ovarian cells [4]) | IC50 (A2780 ovarian cells [5]) | inhibition at 10 µM [6] | IC50 [6]
1 | Cn1ncc2cc(-c3ccc(C4=NC5(CC5)C(=O)N4C[C@@H]4CCN(C(=O)C5(C)CC5)C4)cc3)ccc21 [compound 201, (R)-5-(4-(1-methyl-1H-indazol-5-yl)phenyl)-6-((1-(1-methylcyclopropanecarbonyl)pyrrolidin-3-yl)methyl)-4,6-diazaspiro[2.4]hept-4-en-7-one] | 20.9 nM | 33.9 nM | ~6.61 nM | ~4.37 nM | ~3470 nM | 100% | 43.7 nM
2 | O=C(N1CC[C@@H](CN2C(=O)C3(CC3)N=C2c2ccc(-c3ccc(Cl)cc3F)cc2)C1)C1(O)CC1 [compound 202, (R)-5-(4′-chloro-2′-fluoro[1,1′-biphenyl]-4-yl)-6-((1-(1-hydroxycyclopropanecarbonyl)pyrrolidin-3-yl)methyl)-4,6-diazaspiro[2.4]hept-4-en-7-one] | 550 nM | 74.1 nM | ~95.5 nM | 58.9 nM | > 10000 nM | 101% | 83.2 nM
3 | COc1ccc2cc(-c3ccc(C4=NC5(CC5)C(=O)N4C[C@@H]4CCN(C(=O)C5(O)CC5)C4)cc3)ccc2c1 [compound 203, (R)-6-((1-(1-hydroxycyclopropanecarbonyl)pyrrolidin-3-yl)methyl)-5-(4-(6-methoxynaphthalen-2-yl)phenyl)-4,6-diazaspiro[2.4]hept-4-en-7-one] | 21.4 nM | 46.8 nM | 5.62 nM | ~4.57 nM | > 10000 nM | 99% | 57.5 nM
4 | Cc1cc(-c2ccc3c(cnn3C)c2)ccc1C1=NC2(CC2)C(=O)N1CC1CN(C(=O)C2CCCO2)C1 (centres unmarked) [compound 205, 5-(2-methyl-4-(1-methyl-1H-indazol-5-yl)phenyl)-6-((1-(tetrahytdro-furan-2-carbonyl)azetidin-3-yl)methyl)-4,6-diazaspiro[2.4]hept-4-en-7-one] | 102 nM | 115 nM | 53.7 nM | 36.3 nM | > 10000 nM | 94% | 97.7 nM
5 | Cc1cc(-c2ccc3c(cnn3C)c2)ccc1C1=NC2(CC2)C(=O)N1CC1CN(C(=O)C2(C)CCC2)C1 [compound 208, 5-(2-methyl-4-(1-methyl-1H-indazol-5-yl)phenyl)-6-((1-(1-methylcyclobutanecarbonyl)azetidin-3-yl)methyl)-4,6-diazaspiro[2.4]hept-4-en-7-one] | 117 nM | 105 nM | 43.7 nM | ~72.4 nM | 6030 nM | 99% | 64.6 nM
6 | O=C(C1CC1)N1CC[C@@H](CN2C(=O)C3(CC3)N=C2c2ccc(-c3ccc(F)c(Cl)c3)cc2)C1 [compound 209, (R)-5-(3-chloro-4-fluoro-[1,1-biphenyl]-4-yl)-6-((1-(cyclopropanecarbonyl)pyrrolidin-3-yl)methyl)-4,6-diazaspiro[2.4]hept-4-en-7-one] | 4170 nM | 257 nM | ~776 nM | 1860 nM | > 10000 nM | 108% | 89.1 nM
7 | N#CCc1c[nH]c2ccc(-c3ccc(C4=NC5(CC5)C(=O)N4C[C@@H]4CCN(C(=O)C5CC5)C4)cc3)cc12 [compound 212, (R)-2-(5-(4-(6-((1-(cyclopropanecarbonyl)pyrrolidin-3-yl)methyl)-7-oxo-4,6-diazaspiro[2.4]hept-4-en-5-yl)phenyl)-1H-indole-3-yl)acetonitrile] | 110 nM | 37.2 nM | 18.2 nM | 7.24 nM | > 10000 nM | 101% | 28.2 nM
8 | Cc1[nH]c2ccc(-c3ccc(C4=NC5(CC5)C(=O)N4C[C@@H]4CCN(C(=O)C5CC5)C4)cc3)cc2c1C [compound 213, (R)-6-((1-(cyclopropanecarbonyl)pyrrolidin-3-yl)methyl)-5-(4-(2,3-dimethyl-1H-indol-5-yl)phenyl)-4,6-diazaspiro[2.4]hept-4-en-7-one] | 355 nM | 75.9 nM | ~112 nM | 115 nM | > 10000 nM | 95% | 46.8 nM
9 | Cc1cc2cc(-c3ccc(C4=NC5(CC5)C(=O)N4C[C@@H]4CCN(C(=O)C5CC5)C4)cc3)ccc2[nH]1 [compound 214, (R)-6-((1-(cyclopropanecarbonyl)pyrrolidin-3-yl)methyl)-5-(4-(2-methyl-1H-indol-5-yl)phenyl)-4,6-diazaspiro[2.4]hept-4-en-7-one] | 363 nM | 81.3 nM | 66.1 nM | ~64.6 nM | > 10000 nM | 99% | 22.4 nM
10 | Cn1ccc2cc(-c3ccc(C4=NC5(CC5)C(=O)N4C[C@@H]4CCN(C(=O)C5CC5)C4)cc3)ccc21 [compound 215, (R)-6-((1-(cyclopropanecarbonyl)pyrrolidin-3-yl)methyl)-5-(4-(1-methyl-1H-indol-5-yl)phenyl)-4,6-diazaspiro[2.4]hept-4-en-7-one] | 70.8 nM | 24.5 nM | 15.8 nM | 20.4 nM | > 10000 nM | 102% | 23.4 nM
11 | O=C(C1CC1)N1CC[C@@H](CN2C(=O)C3(CC3)N=C2c2ccc(-c3ccc4[nH]c(CO)cc4c3)cc2)C1 [compound 216, (R)-6-((1-(cyclopropanecarbonyl)pyrrolidin-3-yl)methyl)-5-(4-(2-(hydroxymethyl)-1H-indol-5-yl)phenyl)-4,6-diazaspiro[2.4]hept-4-enn-7-one] | 162 nM | 49 nM | ~53.7 nM | 63.1 nM | > 10000 nM | 102% | 28.8 nM

The remaining lines, values ahead:

Row | IC50 [1] | IC50 [2] | IC50 [3] | IC50 (A2780 ovarian cells [4]) | IC50 (A2780 ovarian cells [5]) | inhibition at 10 µM [6] | IC50 [6] | Structure (SMILES)
12 | 178 nM | 49 nM | 50.1 nM | 30.2 nM | > 10000 nM | 103% | 28.8 nM | O=C(C1CC1)N1CC[C@@H](CN2C(=O)C3(CC3)N=C2c2ccc(-c3ccc4[nH]cc(CCO)c4c3)cc2)C1 [compound 217, (R)-6-((1-(cyclopropanecarbonyl)pyrrolidin-3-yl)methyl)-5-(4-(3-(2-hydroxyethyl)-1H-indol-5-yl)phenyl)-4,6-diazaspiro[2.4]hept-4-en-7-one]
13 | 417 nM | 102 nM | 72.4 nM | 85.1 nM | > 10000 nM | 95% | 72.4 nM | Cc1nn(C)c2ccc(-c3ccc(C4=NC5(CC5)C(=O)N4C[C@@H]4CCN(C(=O)C5CC5)C4)cc3)cc12 [compound 218, (R)-6-((1-(cyclopropanecarbonyl)pyrrolidin-3-yl)methyl)-5-(4-(1,3-dimethyl-1H-indazol-5-yl)phenyl)-4,6-diazaspiro[2.4]hept-4-en-7-one]
14 | 302 nM | 263 nM | 126 nM | 67.6 nM | 1170 nM | 103% | 75.9 nM | Nc1cc2cc(-c3ccc(C4=NC5(CC5)C(=O)N4C[C@@H]4CCN(C(=O)C5CC5)C4)cc3)ccc2cn1 [compound 219, (R)-5-(4-(3-aminoisoquinolin-6-yl)phenyl)-6-((1-(cyclopropanecarbonyl)pyrrolidin-3-yl)methyl)-4,6-diazaspiro[2.4]hept-4-en-7-one]
15 | ~380 nM | 234 nM | 132 nM | 46.8 nM | 6920 nM | 92% | 97.7 nM | Cn1nc(C(N)=O)c2ccc(-c3ccc(C4=NC5(CC5)C(=O)N4C[C@@H]4CCN(C(=O)C5CC5)C4)cc3)cc21 [compound 221, (R)-6-(4-(6-((1-(cyclopropanecarbonyl)pyrrolidin-3-yl)methyl)-7-oxo-4,6-diazaspiro[2.4]hept-4-en-5-yl)phenyl)-1-methyl-1H-indazole-3-carboxamide]
16 | 46.8 nM | ~51.3 nM | 9.33 nM | 6.17 nM | ~2450 nM | 103% | 27.5 nM | N#Cc1ccc2cc(-c3ccc(C4=NC5(CC5)C(=O)N4CC4CN(C(=O)C5CC5)C4)c(F)c3)ccc2c1 [compound 222, 6-(4-(6-((1-(cyclopropanecarbonyl)azetidin-3-yl)methyl)-7-oxo-4,6-diazaspiro[2.4]hept-4-en-5-yl)-3-fluorophenyl)-2-naphthanitrile]
17 | 56.2 nM | 77.6 nM | 12.6 nM | 7.76 nM | ~10000 nM | 103% | 25.1 nM | Cc1cc(-c2ccc3cc(C#N)ccc3c2)ccc1C1=NC2(CC2)C(=O)N1CC1CN(C(=O)C2CCO2)C1 (centres unmarked) [compound 224, 6-(3-methyl-4-(6-((1-(oxetane-2-carbonyl)azetidin-3-yl)methyl)-7-oxo-4,6-diazaspiro[2.4]hept-4-en-5-yl)phenyl)-2-naphthonitrile]
